Experimental data published in patent publication US20030232079A1, “DPC 333 formulation having unique biopharmaceutical characteristics” (priority 2002, published 2003).
Read-outs that look alike come from different tables or passages of the source.

Assay: Double-blind, placebo controlled, ascending single dose pharmacokinetic study of oral DPC 333 in healthy subjects
Assay type: in vivo, human
Details: for half-life / Cmax / Tmax / AUC / AUC(0-inf) / concentration at 12 h: both sexes, human, plasma; for AUC: read-out: mean AUC from time zero to time infinity, range; for concentration at 12 h: read-out: C12 (plasma concentration at 12 hours) Mean
Experimental: The safety, tolerability, and pharmacokinetics of an oral dose form of DPC 333 were evaluated in a double-blind, placebo controlled, ascending single dose study in healthy male and female human subjects. Subjects in each cohort were randomized to receive either a single dose of DPC 333 (n=6) or placebo (n=2). Doses examined were 15, 25, 40, 80, 120, 225, 345, and 530 mg. Safety measurements included monitoring of AEs, standard clinical laboratory tests, ECGs, and vital sign measurements.
Blood samples were obtained pre-dose (0 hour) and 0.25, 0.5, 1, 1.5, 2, 2.5, 3, 4, 6, 8, 12, 18, 24, 36 and 48 hours post-dose administration. DPC 333 was quantified plasma extracts from these blood samples by a solid phase method followed by turbo ion spray liquid chromatography employing tandem mass spectroscopic detection (LC/MS/MS). The validated assay range for DPC 333 using 0.2 mL of plasma was 1.05 to 2098 nM. The assay was specific for DPC 333.
The following pharmacokinetic parameters for DPC 333 were assessed following a single dose administration of the DPC 333 oral dosage form to a subject: Cmax, Tmax, AUC, T1/2, Clo, and C12. Cmax is defined as the observed maximum plasma concentration. Tmax is defined as the time of observed maximum plasma concentration. AUC is defined as the area under the plasma concentration-time curve from time zero to time infinity; T1/2 is defined as the terminal disposition half-life.

[1] = single oral dose 15 mg, healthy volunteers, n = 6
[2] = single oral dose 25 mg, healthy volunteers, n = 6
[3] = single oral dose 40 mg, healthy volunteers, n = 6
[4] = single oral dose 80 mg, healthy volunteers, n = 12

## Cc1cc(COc2ccc([C@]3(N)CCN([C@H](CC(C)C)C(=O)NO)C3=O)cc2)c2ccccc2n1 [DPC 333, [1-(R)]-3-amino-N-hydroxy-alpha-(2-methylpropyl)-3-[4-[(2-methyl-4-quinolinyl)methoxy]phenyl]-2-oxo-1-pyrrolidineacetamide]
At a single dose greater than 225 mg
  increase in mean AUC (time zero to time infinity) with dose: greater than proportional increase
At the 345 mg and 530 mg doses
  increase in exposure (AUC) with dose: greater-than-proportional increase
oral, for the higher doses, read-out: mean half-life estimates (converted)
  half-life: ~6 h
oral, single dose administrations ranging from 15 mg to 530 mg, read-out: mean terminal disposition half-life (T1/2)
  half-life: 2 to 7 h
oral, single dose of 15 mg, read-out: mean maximum plasma concentration (Cmax), range
  Cmax: 0.088 to 0.18 µM
oral, single dose of 15 mg, read-out: mean time of maximum plasma concentration (Tmax), range
  Tmax: 0.5 to 1 h
oral, single dose of 25 mg
  AUC: 0.45 to 0.9 µM·h
oral, single dose of 25 mg, read-out: mean maximum plasma concentration (Cmax), range
  Cmax: 0.17 to 0.435 µM
oral, single dose of 25 mg, read-out: mean time of maximum plasma concentration (Tmax), range
  Tmax: 0.5 to 1 h
oral, single dose of 40 mg
  AUC: 0.93 to 1.43 µM·h
oral, single dose of 40 mg, read-out: mean time of maximum plasma concentration (Tmax), range
  Tmax: 0.25 to 1 h
oral, single dose of 40 mg, upper limit in μM, read-out: mean maximum plasma concentration (Cmax), range
  Cmax: 0.355 to 0.655 µM
oral, single dose of 80 mg
  AUC: 2.25 to 4.16 µM·h
oral, single dose of 80 mg, read-out: mean time of maximum plasma concentration (Tmax), range
  Tmax: 0.5 to 1 h
oral, single dose of 80 mg, upper limit in μM, read-out: mean maximum plasma concentration (Cmax), range
  Cmax: 0.965 to 1.87 µM
oral, single dose of 120 mg
  AUC: 3.33 to 6.21 µM·h
oral, single dose of 120 mg, read-out: mean maximum plasma concentration (Cmax), range
  Cmax: 1.54 to 2.35 µM
oral, single dose of 120 mg, read-out: mean time of maximum plasma concentration (Tmax), range
  Tmax: 0.5 to 1 h
oral, single dose of 225 mg
  AUC: 6.38 to 9.4 µM·h
oral, single dose of 225 mg, read-out: mean time of maximum plasma concentration (Tmax), range
  Tmax: 0.5 to 1 h
oral, single dose of 225 mg, upper limit in μM, read-out: mean maximum plasma concentration (Cmax), range
  Cmax: 2.62 to 3.65 µM
oral, single dose of 345 mg
  AUC: 18.4 to 28.8 µM·h
oral, single dose of 345 mg, read-out: mean maximum plasma concentration (Cmax), range
  Cmax: 6.58 to 15.4 µM
oral, single dose of 345 mg, read-out: mean time of maximum plasma concentration (Tmax), range
  Tmax: 0.25 to 1 h
oral, single dose of 530 mg
  AUC: 22 to 39.5 µM·h
oral, single dose of 530 mg, read-out: mean maximum plasma concentration (Cmax), range
  Cmax: 9.45 to 18.1 µM
oral, single dose of 530 mg, read-out: mean time of maximum plasma concentration (Tmax), range
  Tmax: 0.5 to 1 h
po, 15 mg, single oral dose 15 mg, healthy volunteers, n = 6, read-out: T½ Mean (harmonic mean) (converted)
  half-life: 2.18 h
po, 25 mg, single oral dose 25 mg, healthy volunteers, n = 6, read-out: T½ Mean (harmonic mean) (converted)
  half-life: 2.86 h
po, 40 mg, single oral dose 40 mg, healthy volunteers, n = 6, read-out: T½ Mean (harmonic mean) (converted)
  half-life: 3.41 h
po, 80 mg, single oral dose 80 mg, healthy volunteers, n = 12, read-out: T½ Mean (harmonic mean) (converted)
  half-life: 4.05 h
po, 120 mg, single oral dose 120 mg, healthy volunteers, n = 6, read-out: T½ Mean (harmonic mean) (converted)
  half-life: 4.89 h
po, 225 mg, single oral dose 225 mg, healthy volunteers, n = 6, read-out: T½ Mean (harmonic mean) (converted)
  half-life: 5.53 h
po, 345 mg, single oral dose 345 mg, healthy volunteers, n = 6, read-out: T½ Mean (harmonic mean) (converted)
  half-life: 6.39 h
po, 530 mg, single oral dose 530 mg, healthy volunteers, n = 6, read-out: T½ Mean (harmonic mean) (converted)
  half-life: 6.04 h
Oral administration, post dose, doses 15 to 530 mg, read-out: Tmax values
  Tmax: < 1 h
[1]
  AUC(0-inf): 0.342 µM·h
  concentration at 12 h: 2.09 nM
Single oral dose 15 mg, healthy volunteers, n = 6, read-out: Cmax Mean
  Cmax: 0.134 µM
Single oral dose 15 mg, healthy volunteers, n = 6, read-out: Tmax Median
  Tmax: 0.75 h
[2]
  AUC(0-inf): 0.676 µM·h
  concentration at 12 h: 4.41 nM
Single oral dose 25 mg, healthy volunteers, n = 6, read-out: Cmax Mean
  Cmax: 0.303 µM
Single oral dose 25 mg, healthy volunteers, n = 6, read-out: Tmax Median
  Tmax: 0.5 h
[3]
  AUC(0-inf): 1.18 µM·h
  concentration at 12 h: 6.36 nM
Single oral dose 40 mg, healthy volunteers, n = 6, read-out: Cmax Mean
  Cmax: 0.505 µM
Single oral dose 40 mg, healthy volunteers, n = 6, read-out: Tmax Median
  Tmax: 0.5 h
[4]
  AUC(0-inf): 3.2 µM·h
  concentration at 12 h: 20.4 nM
Single oral dose 80 mg, healthy volunteers, n = 12, read-out: Cmax Mean
  Cmax: 1.42 µM
Single oral dose 80 mg, healthy volunteers, n = 12, read-out: Tmax Median
  Tmax: 0.5 h
Single oral dose 120 mg, healthy volunteers, n = 6
  AUC(0-inf): 4.77 µM·h
